# Reference: ChEMBL document CHEMBL1201862, “PubChem BioAssay data set” (2004)
# Calls of active or inactive are those of the source.
# Assays:
# [1] = cytotoxicity toward HCT116 cells – cell-based, CellTiter-Glo luminescence, IC50, dose response (AID 1117332); format: functional; settings: HCT-116
# P388/ADR = test: cells; format: functional; settings: Mus musculus
# [2] = cytotoxicity toward HT-29 cells – cell-based, CellTiter-Glo luminescence, IC50, dose response (AID 1117330); format: functional
# [3] = HeLa 2N DNA content increase, dose response, cell-based, IC50 (AID 1117349); format: functional
# [4] = CellTiter-Glo luminescent dose response of DLD-1 viability loss (AID 1117352); format: functional
# [5] = RKO cell viability reduction, dose response, CellTiter-Glo luminescence (AID 1117322); format: functional
# [6] = SNU-C1 cell viability reduction, dose response, CellTiter-Glo luminescence (AID 1117323); format: functional, cell-based
# [7] = HeLa 4N DNA content increase, dose response, cell-based, IC50 (AID 1117351); format: functional
# [8] = HCT116 cell viability decrease, GSK3B pretreatment – CellTiter-Glo, IC50, dose response (AID 1117339); format: functional; settings: HCT-116
# [9] = cytotoxicity toward Colo320 cells – cell-based, CellTiter-Glo luminescence, IC50, dose response (AID 1117334); format: functional; settings: COLO 320
# [10] = Concentration-dependent survival of SW480 colon cancer line, luminescence detection with CellTiter-Glo, half-maximal inhibitory concentration (AID 1117338); format: functional
# SN12K1 = test: cells; format: functional; settings: Homo sapiens
# P388 = test: cells; format: functional; settings: Mus musculus
# [11] = HEK293 cell cytotoxicity, dose response, cytotoxicity control, plate reader, cherry-picked samples (AID 743446); format: functional, cell-based
# [12] = MC4R antagonists, dose response, counter-screen for LGR2 antagonist project, cell-based, plate reader, cherry pick (AID 743444); format: functional;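 also: transfected HEK 293 cells stimulated with alpha-MSH peptide; potency of inhibitors of the alpha-MSH evoked signal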
# [13] = LGR2 antagonists, dose response, cell-based, HEK293, CRE-luciferase reporter, cherry pick, set 2 (AID 743343); format: functional;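 also: transfected cells were stimulated with diluted bursicon conditioned medium after compound addition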
# [14] = molecular target: Heat shock protein HSP 90-alpha (Homo sapiens, UniProt P07900); test: Luminescence-based dose response biochemical high throughput screening assay for inhibitors of the Heat Shock Protein 90 (HSP90). [Related pubchem assays: 1831 (Summary AID.), 1846 (Confirmation screen.), 1789 (Primary screen.)]
# fMet-Leu-Phe receptor = fMet-Leu-Phe receptor (Homo sapiens, UniProt P21462); test: FPR ligands, dose response (AID 519); format: functional
# Chain of fMet-Leu-Phe receptor (P21462 whole entry): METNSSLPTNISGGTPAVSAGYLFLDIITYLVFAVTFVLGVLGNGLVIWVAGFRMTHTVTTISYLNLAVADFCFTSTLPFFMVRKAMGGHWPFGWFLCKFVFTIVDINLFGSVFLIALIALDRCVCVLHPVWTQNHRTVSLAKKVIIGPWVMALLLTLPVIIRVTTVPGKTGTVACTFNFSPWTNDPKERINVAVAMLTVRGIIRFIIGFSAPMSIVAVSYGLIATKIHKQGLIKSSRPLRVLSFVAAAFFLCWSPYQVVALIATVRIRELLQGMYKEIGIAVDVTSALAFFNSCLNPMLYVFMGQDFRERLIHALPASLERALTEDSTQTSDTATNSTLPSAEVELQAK
# Protein Tat = Protein Tat (Human immunodeficiency virus type 1 group M subtype B (isolate HXB2)(HIV-1), UniProt P04608); format: functional;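 also: tat binding to TAR RNA read out by fluorescence polarization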
# Chain of Protein Tat (P04608 whole entry, the tested form may be a part): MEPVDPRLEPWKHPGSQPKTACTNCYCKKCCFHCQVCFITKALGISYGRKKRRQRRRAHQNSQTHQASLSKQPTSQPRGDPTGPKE
# [15] = molecular target: T1, Oxysterols receptor LXR-beta (Homo sapiens, UniProt P55055); test: LXR agonists, Gal4 luciferase reporter, dose response, counter-screen for ssDAF-12 agonist project, cell-based, luminescence, HEK293, S. stercoralis campaign (AID 720737); format: functional; settings: read-out: IC50 (the source's name)
# T1 sequence (P55055 whole entry): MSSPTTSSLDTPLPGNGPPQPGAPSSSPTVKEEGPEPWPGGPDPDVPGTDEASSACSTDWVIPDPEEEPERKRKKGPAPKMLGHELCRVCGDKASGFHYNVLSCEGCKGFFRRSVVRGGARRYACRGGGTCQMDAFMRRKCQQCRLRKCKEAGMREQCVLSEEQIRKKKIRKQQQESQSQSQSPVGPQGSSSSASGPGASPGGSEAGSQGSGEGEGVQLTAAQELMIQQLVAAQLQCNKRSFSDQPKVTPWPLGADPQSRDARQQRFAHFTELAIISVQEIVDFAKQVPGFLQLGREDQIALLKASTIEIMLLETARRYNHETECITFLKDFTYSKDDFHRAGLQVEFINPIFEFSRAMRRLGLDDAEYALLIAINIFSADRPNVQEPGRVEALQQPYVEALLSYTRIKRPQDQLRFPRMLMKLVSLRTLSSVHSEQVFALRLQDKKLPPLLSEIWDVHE
# [16] = Luminescence-based cell-based high throughput dose response assay to identify activators of the DAF-12 from the parasite S. stercoralis (ssDAF-12).; format: functional
# [17] = molecular target: Mitogen-activated protein kinase 10 (Homo sapiens, UniProt P53779); test: Dose response biochemical screening assay for inhibitors of c-Jun N-Terminal Kinase 3 (JNK3). [Related pubchem assays: 746 ]
# Chain of Mitogen-activated protein kinase 10 (P53779 whole entry): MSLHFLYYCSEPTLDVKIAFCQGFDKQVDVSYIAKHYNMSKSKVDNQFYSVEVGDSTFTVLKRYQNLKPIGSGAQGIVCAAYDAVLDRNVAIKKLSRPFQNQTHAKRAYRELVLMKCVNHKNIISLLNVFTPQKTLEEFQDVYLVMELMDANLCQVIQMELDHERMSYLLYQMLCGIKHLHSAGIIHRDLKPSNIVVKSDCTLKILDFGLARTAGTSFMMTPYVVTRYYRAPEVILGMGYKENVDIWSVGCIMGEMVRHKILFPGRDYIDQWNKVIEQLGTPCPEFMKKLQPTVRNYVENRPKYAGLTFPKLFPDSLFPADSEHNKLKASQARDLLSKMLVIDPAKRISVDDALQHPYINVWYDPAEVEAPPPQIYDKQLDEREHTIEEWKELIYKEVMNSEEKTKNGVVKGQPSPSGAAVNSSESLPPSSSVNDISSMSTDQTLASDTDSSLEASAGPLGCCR
# [18] = NIH:OVCAR-3 ovarian cancer cell cytotoxicity, dose response, PAX8 inhibitor project, plate reader, dry powder samples (AID 743044); format: functional, cell-based
# Paired box protein Pax-8 = Paired box protein Pax-8 (Homo sapiens, UniProt Q06710); test: inhibitors of PAX8-driven TPO luciferase reporter, dose response, RMG-I cells, cherry-pick (AID 687027); format: functional, cell-based;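 also: luciferase reporter driven by Pax8 target thyroperoxidase promoter measured by SteadyGlo luminescence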
# Chain of Paired box protein Pax-8 (Q06710 whole entry): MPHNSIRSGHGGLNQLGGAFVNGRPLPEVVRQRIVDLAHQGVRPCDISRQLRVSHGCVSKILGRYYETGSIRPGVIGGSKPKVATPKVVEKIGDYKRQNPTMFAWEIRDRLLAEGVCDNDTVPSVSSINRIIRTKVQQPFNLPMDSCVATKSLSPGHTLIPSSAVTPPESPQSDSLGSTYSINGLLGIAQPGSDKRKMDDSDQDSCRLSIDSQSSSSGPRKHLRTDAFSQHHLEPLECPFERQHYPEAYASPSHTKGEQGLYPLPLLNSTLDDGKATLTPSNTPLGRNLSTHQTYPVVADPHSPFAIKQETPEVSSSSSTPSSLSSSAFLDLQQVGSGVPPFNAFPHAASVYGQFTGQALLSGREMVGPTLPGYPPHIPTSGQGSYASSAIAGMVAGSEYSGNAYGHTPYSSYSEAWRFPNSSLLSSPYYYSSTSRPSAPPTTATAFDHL
# [19] = IGROV1 ovarian cancer cell cytotoxicity, dose response, PAX8 inhibitor project, plate reader, dry powder samples (AID 743043); format: functional, cell-based; settings: IGROV-1
smiles,measurement,setting,value
OC[C@H]1O[C@@H](n2cnc3c(S)ncnc32)[C@H](O)[C@@H]1O [THIOINOSINE],IC50,[1],0.0286 µM (active)
same,GI50,P388/ADR,1140 µM (inactive)
same,IC50,[2],0.118 µM (active)
same,IC50,[3],> 10 µM (inactive)
same,IC50,[4],0.063 µM (active)
same,IC50,[5],0.0144 µM (active)
same,IC50,[6],2.19 µM (active)
same,IC50,[7],> 10 µM (inactive)
same,IC50,[8],0.504 µM (active)
same,IC50,[9],1.06 µM (active)
same,IC50,[10],0.0287 µM (active)
same,GI50,SN12K1,1780 µM (inactive)
same,GI50,P388,1240 µM (inactive)
FC(F)(F)c1cccc(CC2CN(Cc3ccccc3)Cc3ccccc3N2c2cc(Cl)cc(Cl)c2)c1 (configuration not stated),AC50,[11],> 52 µM (inactive)
same,AC50,[12],12.5 µM (active)
same,AC50,[13],22.2 µM (active)
C=CCc1ccc(OCc2ccc(C(=O)OC)o2)c(OC)c1,IC50,[14],7.02 µM (active)
Cc1cccc(C2CC(c3ccc(Cl)cc3)Nc3nc(N)nn32)c1 (configuration not stated),Ki,fMet-Leu-Phe receptor,> 66.7 µM (inactive)
Cc1cccc(C)c1NC(=O)CC12CCCN1CCC2 [PILSICAINIDE],IC50,[1],> 20 µM (inactive)
same,IC50,[2],> 20 µM (inactive)
same,IC50,[4],> 20 µM (inactive)
same,IC50,[5],> 20 µM (inactive)
same,IC50,[6],> 20 µM (inactive)
same,IC50,[8],> 20 µM (inactive)
same,IC50,[9],> 20 µM (inactive)
same,IC50,[10],> 20 µM (inactive)
CCOC(=O)C1=C(O)/C(=C/c2ccc(CNC(=O)C(=O)Nc3ccc(C)cc3)o2)N=C1C,IC50,Protein Tat,47.8 µM (inconclusive)
CCCCCCCCCCOCC(O)CN (configuration not stated),IC50,[3],> 10 µM (inactive)
same,IC50,[7],> 10 µM (inactive)
O=C(Cc1c[nH]c2ccccc12)NNCc1ccc(N(CCCl)CCCl)cc1,EC50,[15],> 67.5 µM (inactive)
same,IC50,[16],> 67.5 µM (inactive)
O=c1c2c(nc3n1CCCCC3)sc1c(O)cccc12,IC50,[17],55.7 µM (not active)
C[C@@H]1CCCCO[C@H](CN(C)Cc2ccc(C(F)(F)F)cc2)[C@@H](C)CN([C@@H](C)CO)C(=O)c2cc(NC(=O)Cc3ccccc3)ccc2O1,AC50,[18],35.2 µM (active)
same,AC50,Paired box protein Pax-8,9.25 µM (active)
same,AC50,[19],64.6 µM (active)
CC(C)N(C)c1ncnc2c1ncn2[C@H]1CN(Cc2cccnc2)C[C@@H](CO)O1,EC50,[15],> 67.5 µM (inactive)
same,IC50,[16],> 67.5 µM (inactive)
